Results taken from patent publication US20230293517A1, “ANTAGONIST COMPOUNDS” (AdoRx Therapeutics Limited, priority 2020, published 2023).
Where a name gives a salt, the structure may show the parent alone. Read-outs that look alike come from different tables or passages of the source.

Experiments:
[1] = target: human Adenosine A1 receptor (Homo sapiens (Human), UniProt P30542); test: Adenosine receptor TR-FRET binding assay (A1); details: inhibition of binding of 100 nM CA200645, CHO cell membranes
Sequence of human Adenosine A1 receptor (P30542 whole entry): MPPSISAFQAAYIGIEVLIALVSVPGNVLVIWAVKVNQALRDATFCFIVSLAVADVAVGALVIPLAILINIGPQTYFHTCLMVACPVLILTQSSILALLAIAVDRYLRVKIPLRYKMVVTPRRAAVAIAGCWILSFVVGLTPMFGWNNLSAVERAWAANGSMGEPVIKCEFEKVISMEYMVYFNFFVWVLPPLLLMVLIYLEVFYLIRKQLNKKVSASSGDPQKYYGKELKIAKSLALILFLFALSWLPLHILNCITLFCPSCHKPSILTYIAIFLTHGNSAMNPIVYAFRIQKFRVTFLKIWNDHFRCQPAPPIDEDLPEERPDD
In short: (§1)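 Compounds were serially diluted 1:3 in DMSO, then incubated with CHO membranes bearing Tb-tagged human receptor plus CA200645 (A2b 30 nM; A1, A2a, A3 100 nM) for 2 h at room temperature. Time-resolved FRET was read, non-specific binding subtracted using 10 μM XAC, and Ki calculated.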

[2] = target: human Adenosine A2b receptor (Homo sapiens (Human), UniProt P29275); test: Adenosine receptor TR-FRET binding assay (A2b)
Sequence of human Adenosine A2b receptor (P29275 whole entry): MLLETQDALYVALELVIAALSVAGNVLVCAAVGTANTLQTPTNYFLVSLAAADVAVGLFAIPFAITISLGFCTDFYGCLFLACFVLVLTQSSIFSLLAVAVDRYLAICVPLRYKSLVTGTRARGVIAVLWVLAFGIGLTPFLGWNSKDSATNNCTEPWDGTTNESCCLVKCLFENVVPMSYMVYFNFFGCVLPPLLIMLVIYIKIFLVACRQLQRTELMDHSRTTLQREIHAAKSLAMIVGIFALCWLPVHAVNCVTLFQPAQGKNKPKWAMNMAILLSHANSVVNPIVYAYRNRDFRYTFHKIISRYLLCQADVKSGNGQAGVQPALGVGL
In short: as §1

[3] = target: human Adenosine A2a receptor (Homo sapiens (Human), UniProt P29274); test: Adenosine receptor TR-FRET binding assay (A2a); details: inhibition of binding of 100 nM CA200645, CHO cell membranes
Sequence of human Adenosine A2a receptor (P29274 whole entry): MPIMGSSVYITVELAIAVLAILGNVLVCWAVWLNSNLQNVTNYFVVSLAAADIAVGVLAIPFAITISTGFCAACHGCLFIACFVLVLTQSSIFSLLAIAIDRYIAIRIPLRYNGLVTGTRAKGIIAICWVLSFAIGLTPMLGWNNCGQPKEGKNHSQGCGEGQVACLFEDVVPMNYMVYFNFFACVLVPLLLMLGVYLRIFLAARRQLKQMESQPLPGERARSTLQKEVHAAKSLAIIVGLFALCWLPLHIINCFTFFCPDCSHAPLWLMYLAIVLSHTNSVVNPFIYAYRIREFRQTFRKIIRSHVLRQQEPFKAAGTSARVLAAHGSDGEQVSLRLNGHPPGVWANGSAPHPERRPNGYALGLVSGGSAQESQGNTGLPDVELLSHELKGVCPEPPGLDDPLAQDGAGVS
In short: as §1

[4] = target: human Adenosine A3 receptor (Homo sapiens (Human), UniProt P0DMS8); test: Adenosine receptor TR-FRET binding assay (A3); details: inhibition of binding of 100 nM CA200645, CHO cell membranes
Sequence of human Adenosine A3 receptor (P0DMS8 whole entry): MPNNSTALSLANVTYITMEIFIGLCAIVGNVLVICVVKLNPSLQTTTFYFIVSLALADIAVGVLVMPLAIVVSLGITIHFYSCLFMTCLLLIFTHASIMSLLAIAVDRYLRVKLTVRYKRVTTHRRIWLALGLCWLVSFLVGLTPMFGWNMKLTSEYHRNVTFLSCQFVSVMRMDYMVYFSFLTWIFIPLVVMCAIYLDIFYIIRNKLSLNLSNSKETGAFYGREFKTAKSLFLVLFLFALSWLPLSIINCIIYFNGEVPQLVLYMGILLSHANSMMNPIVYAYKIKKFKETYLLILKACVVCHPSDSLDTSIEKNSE
Experimental: Biological Example 1—Adenosine Receptor Time-Resolved Fluorescence Resonance Energy Transfer (TRFRET) Binding Assay
All FRET binding experiments were conducted at room temperature in white 384-well plates, in assay binding buffer containing 1×LabMed (Cisbio, France), 100 μg/mL saponin, 1% DMSO and 0.02% pluronic acid. Binding of the fluorescently labelled Adenosine receptor antagonist XAC (CA200645, FRET acceptor) to terbium-labelled A1, A2a, A2b and A3 adenosine receptors (FRET donors) was detected by time-resolved FRET due to the close proximity of the donor and acceptor in a binding event. To investigate the ability of unlabelled test compounds to bind to Adenosine A1, A2a, A2b and A3 receptors, dose response curves were constructed that determined the ability of a range of concentrations to inhibit the binding of 30 nM CA200645 to the A2b receptor and 100 nM CA200645 to the A1, A2a, and A3 receptor.
Serial dilution (1:3 dilutions) of test compounds in neat DMSO and transfer of a 400 nL sample of test compound into the assay plate was carried out using the Mosquito (TTP Labtech, UK). The compound samples were incubated for 2 hours at room temperature with a fixed concentration of CA200645 defined for each receptor (see above) and CHO cell membranes containing the human Adenosine A1 (0.5 μg/well), A2a (0.3 μg/well), A2b (1 μg/well) or A3 (1 μg/well) receptor in 40 μL of assay buffer. Total and non-specific binding of CA200645 was determined in the absence and presence of 10 μM XAC, respectively. Following 2 hours incubation, the level of CA200645 binding was detected on a Pherastar FSX (BMG Labtech, Germany) using standard TR-FRET settings. The terbium donor was excited with three laser flashes at a wavelength of 337 nm, and donor and acceptor emission was detected at 620 nm and 665 nm wavelengths, respectively. FRET ratios were obtained by multiplying the acceptor/donor ratio value by 10,000. Specific binding was determined by subtracting the non-specific binding FRET ratio from the total binding FRET ratio. Compound IC50 curves were analysed using GraphPad Prism 7.0 (GraphPad, USA) and Ki affinity values were determined from the obtained IC50 values using the method of Cheng and Prusoff.

[5] = TR-FRET, inhibition of binding of 30 nM CA200645, CHO cell membranes

Row | Compound | Ki [1] [nM] | Ki [2, 5] [nM] | Ki [3] [nM] | Ki [4] [nM] | Ki [2] [nM]
1 | Cc1cc(-c2sc(NC(=O)N3CC[C@@H](C(N)=O)C3)nc2-c2cccc(C#N)c2)cc(C)n1 [Example 6.8, (3R)-N1-[4-(3-Cyanophenyl)-5-(2,6-dimethyl-4-pyridyl)thiazol-2-yl]pyrrolidine-1,3-dicarboxamide] | 23 | 1.1 | 0.72 | 312 | 
2 | Cc1cc(-c2sc(NC(=O)N3CCn4ccnc4C3)nc2-c2cccc(C#N)c2)cc(C)n1 [Example 6.27, N-[4-(3-Cyanophenyl)-5-(2,6-dimethyl-4-pyridyl)thiazol-2-yl]-6,8-dihydro-5H-imidazo[1,2-a]pyrazine-7-carboxamide] | 45 | 1.4 | 1.01 | 151 | 
3 | Cc1cc(-c2sc(NC(=O)N3CCC4(CC3)C(=O)N(C)C(=O)N4C)nc2-c2cccc(C#N)c2)cc(CO)n1 [Example 9.5] | 174 | 7.5 | 2.28 | 699 | 
4 | Cc1cc(-c2sc(NC(=O)N3CC[S+]([O-])CC3)nc2-c2cccc(C#N)c2)cc(CO)n1 [Example 9.3] | 29 | 8.1 | 1.11 | 1510 | 
5 | Cc1cc(-c2sc(NC(=O)N3CCN[C@H](C(F)(F)F)C3)nc2-c2cccc(C#N)c2)cc(C)n1 [Example 13.10, (3S)-N-[4-(3-Cyanophenyl)-5-(2,6-dimethyl-4-pyridyl)thiazol-2-yl]-3-(trifluoromethyl)piperazine-1-carboxamide] | 61 | 14.5 | 4.56 | 573 | 
6 | Cc1cc(-c2sc(NC(=O)N3CCC4(CCN(C)C4=O)CC3)nc2-c2cccc(C#N)c2)cc(C)n1 [Example 6.77, N-[4-(3-Cyanophenyl)-5-(2,6-dimethyl-4-pyridyl)thiazol-2-yl]-2-methyl-1-oxo-2,8-diazaspiro[4.5]decane-8-carboxamide] | 133 | 5.4 | 1.44 | 193 | 
7 | Cc1cc(-c2sc(NC(=O)N3CC(C(C)(C)O)C3)nc2-c2cccc(C#N)c2)cc(C)n1 [Example 4.33, N-[4-(3-Cyanophenyl)-5-(2,6-dimethyl-4-pyridyl)thiazol-2-yl]-3-(1-hydroxy-1-methyl-ethyl)azetidine-1-carboxamide] | 62 | 5.9 | 1.91 | 410 | 
8 | Cc1cc(-c2sc(NC(=O)N3CCC34COC4)nc2-c2cccc(C#N)c2)cc(C)n1 [Example 6.87, N-[4-(3-Cyanophenyl)-5-(2,6-dimethyl-4-pyridyl)thiazol-2-yl]-6-oxa-1-azaspiro[3.3]heptane-1-carboxamide] | 57 | 6.7 | 1.75 | 37 | 
9 | COc1cc(-c2sc(NC(=O)N3CC[S+]([O-])CC3)nc2-c2cccc(C#N)c2)cc(C)n1 [Example 16.3] | 82 | 6.2 | 5.71 | 383 | 
10 | Cc1cc(-c2sc(NC(=O)N3CCC(C(=O)O)CC3)nc2-c2cccc(C#N)c2)cc(C)n1 [Example 6.62, 1-[[4-(3-Cyanophenyl)-5-(2,6-dimethyl-4-pyridyl)thiazol-2-yl]carbamoyl]piperidine-4-carboxylic acid] | 219 | 23.3 | 35.7 | 358 | 
11 | Cc1cc(-c2sc(NC(=O)N3CC[C@H]3C(C)(C)O)nc2-c2cccc(C#N)c2)cc(C)n1 [Example 6.82, (2S)-N-[4-(3-Cyanophenyl)-5-(2,6-dimethyl-4-pyridyl)thiazol-2-yl]-2-(1-hydroxy-1-methyl-ethyl)azetidine-1-carboxamide] | 116 | 5.1 | 3.67 | 246 | 
12 | Cc1cc(-c2sc(NC(=O)N3CCNC[C@H]3C)nc2-c2cccc(C#N)c2)cc(C)n1 [Example 13.8, (2R)-N-[4-(3-Cyanophenyl)-5-(2,6-dimethyl-4-pyridyl)thiazol-2-yl]-2-methyl-piperazine-1-carboxamide] | 47 | 12.3 | 2.38 | 41 | 
13 | Cc1cc(-c2sc(NC(=O)N3CC4(COC4)C3)nc2-c2cccc(C#N)c2)cc(CO)n1 [Example 9, N-[4-(3-Cyanophenyl)-5-[2-(hydroxymethyl)-6-methyl-4-pyridyl]thiazol-2-yl]-2-oxa-6-azaspiro[3.3]heptane-6-carboxamide] | 47 | 5.3 | 0.61 | 2020 | 
14 | Cc1cc(-c2sc(NC(=O)N3CCN[C@@H](C(=O)O)C3)nc2-c2cccc(C#N)c2)cc(Cl)n1 [Example 5, (2R)-4-[[5-(2-Chloro-6-methyl-4-pyridyl)-4-(3-cyanophenyl)thiazol-2-yl]carbamoyl]piperazine-2-carboxylic acid] | 601 | 5.5 | 5.75 | 696 | 
15 | Cc1cc(-c2sc(NC(=O)N3C[C@@H]4NCCO[C@H]4C3)nc2-c2cccc(C#N)c2)cc(C(F)F)n1 (racemic) [Example 14.1, rac-(4aS,7aS)—N-[4-(3-Cyanophenyl)-5-[2-(difluoromethyl)-6-methyl-4-pyridyl]thiazol-2-yl]-3,4,4a,5,7,7a-hexahydro-2H-pyrrolo[3,4-b][1,4]oxazine-6-carboxamide 2,2,2-trifluoroacetic acid salt] | 41 |  | 2.67 | 112 | 8.6
16 | Cc1cc(-c2sc(NC(=O)N3C[C@@H]4NCCO[C@@H]4C3)nc2-c2cccc(C#N)c2)cc(C(F)F)n1 (racemic) [Example 14.2, rac-(4aS,7aR)—N-[4-(3-Cyanophenyl)-5-[2-(difluoromethyl)-6-methyl-4-pyridyl]thiazol-2-yl]-3,4,4a,5,7,7a-hexahydro-2H-pyrrolo[3,4-b][1,4]oxazine-6-carboxamide 2,2,2-trifluoroacetic acid salt] | 183 |  | 2.09 | 132 | 8.3
17 | Cc1cc(-c2sc(NC(=O)N3CC[C@H](C(N)=O)C3)nc2-c2cccc(C#N)c2)cc(C)n1 [Example 6.3, (3S)-N1-[4-(3-Cyanophenyl)-5-(2,6-dimethyl-4-pyridyl)thiazol-2-yl]pyrrolidine-1,3-dicarboxamide] | 32 | 1.5 | 0.87 | 125 | 
18 | Cc1cc(-c2sc(NC(=O)N3CC4(COC4)C3)nc2-c2cccc(C#N)c2)cc(C(C)C)n1 [Example 16.8] | 6 | 1.1 | 0.13 | 537 | 
19 | Cc1cc(-c2sc(NC(=O)N3CC[C@@H]3C(C)(C)O)nc2-c2cccc(C#N)c2)cc(C)n1 [Example 6.83, (2R)-N-[4-(3-Cyanophenyl)-5-(2,6-dimethyl-4-pyridyl)thiazol-2-yl]-2-(1-hydroxy-1-methyl-ethyl)azetidine-1-carboxamide] | 129 | 102 | 67.6 | 294 | 
20 | Cc1cc(-c2sc(NC(=O)N3CCNC[C@@H]3C)nc2-c2cccc(C#N)c2)cc(C)n1 [Example 13.4, (2S)-N-[4-(3-Cyanophenyl)-5-(2,6-dimethyl-4-pyridyl)thiazol-2-yl]-2-methyl-piperazine-1-carboxamide] | 54 | 19.6 | 5.13 | 54 | 
21 | Cc1cc(-c2sc(NC(=O)N3CCC4(CC3)CNC4=O)nc2-c2cccc(C#N)c2)cc(CO)n1 [Example 9.1] | 95 | 7 | 0.78 | 1000 | 
22 | Cc1cc(-c2sc(NC(=O)N3CCC(c4ncon4)CC3)nc2-c2cccc(C#N)c2)cc(C)n1 [Example 6.22, N-[4-(3-Cyanophenyl)-5-(2,6-dimethyl-4-pyridyl)thiazol-2-yl]-4-(1,2,4-oxadiazol-3-yl)piperidine-1-carboxamide] | 4 | 1.8 | 0.38 | 107 | 
23 | CC(=O)N=S1(=O)CCN(C(=O)Nc2nc(-c3cccc(C#N)c3)c(-c3cc(C)nc(C)c3)s2)CC1 [Example 8, 1-Acetylimino-N-[4-(3-cyanophenyl)-5-(2,6-dimethyl-4-pyridyl)thiazol-2-yl]-1-oxo-1,4-thiazinane-4-carboxamide] | 59 | 1.8 | 1.83 | 776 | 
